Test results as given in publication PMC3090393, “New Noncovalent Inhibitors of Penicillin-Binding Proteins from Penicillin-Resistant Bacteria” (PLoS ONE, 2011).
≈ marks a conversion by molar mass, not a printed value.

How the values were obtained:
[1] = molecular target: T1, PBP2a (Staphylococcus aureus, UniProt P07944); experiment: PBP2a enzymatic inhibition assay (fluorescein-labeled ampicillin, residual penicillin binding activity); type: biochemical, Staphylococcus aureus ATCC 43300; settings: for remaining activity at 1000 µM: 4 h, residual activity of the enzyme at 1 mM inhibitor, 0.01% Triton X-100, mean of three experiments, read-out: PBP2a RA [%]; for IC50: in the presence of 0.01% Triton X-100
T1 construct: made in house
Method: (§1) PBP2a from Staphylococcus aureus ATCC 43300 and PBP5fm from Enterococcus faecium D63r were overproduced and purified as described previously, [18].
(§2) Each of the purified PBPs (2.5 µM) were first incubated with 1 mM potential inhibitor in 100 mM phosphate buffer, 0.01% Triton X-100[19], pH 7, for 4 h at 30°C. Then, 25 µM fluorescein-labeled ampicillin[20] was added to detect the residual penicillin binding activity (RA). The samples were further incubated for 30 min at 37°C in a total volume of 20 µL. Denaturation buffer was added (0.1 M Tris/HCl, pH 6.8, containing 25% glycerol, 2% SDS, 20% β-mercaptoethanol and 0.02% bromophenol blue) and the samples were heated to 100°C for 1 min. The samples were then loaded onto a 10% SDS-acrilamide gel (10×7 cm) and electrophoresis was performed for 45 min at 180 V (12 mA). Detection and quantification of the RAs were with Molecular Image FX equipment and Quantity One software (BioRad, Hercules, CA, USA). Three independent experiments were carried out for each inhibitor.

[2] = molecular target: PBP2x 5204 (Streptococcus pneumoniae, UniProt P59676); experiment: PBP2x 5204 enzymatic inhibition assay (S2d hydrolysis, DTNB); type: biochemical, Streptococcus pneumoniae strain 5204; settings: for PBP2x5204 RA [%]: 240 min
Method: PBP2x-5204 from Streptococcus pneumonia and N-benzoyl-D-alanyl-thioglycolate S2d[21], [22] were prepared as previously described. All assays with PBP2x 5204 were carried out in 96-well microtiter plates (Brand, Wertheim, Germany). PBP2x 5204 (0.6 µM) was incubated in the presence of the potential inhibitors in 10 mM sodium phosphate buffer (pH 7.0) containing 70 mM D-alanine and 0.01 mg/mL BSA, for 4 h at 25°C. This preincubation was used to also detect slow binding inhibitors. After the preincubation, the RA of PBP2x 5204 was determined. The initial rate of hydrolysis of 1 mM S2d in the presence of 1 mM DTNB was determined by monitoring the increase in absorbance at 412 nm (DTNB: ε[Δ ε] = […]) using a microplate absorbance reader (Power Wave X, Biotek Instruments, Winooski, U.S.A.). The rate of spontaneous hydrolysis of S2d in the presence of the potential inhibitors was also determined in the absence of PBP2x 5204. All of the assays were carried out in triplicate. The determination of the RA of PBP2x 5204 in the absence of inhibitors was carried out six times on each plate. A test compound was considered as an inhibitor if the RA was <80%. In this case, to reveal false positives, the assays were also carried out under the same conditions in the presence of 0.01% Triton X-100. As described in the literature, promiscuous inhibitors (false positives) are slow binding, noncompetitive inhibitors. To avoid detailed kinetic investigations, it is possible to identify such compounds by carrying out the assays in the presence of Triton X-100[14], [19]. Promiscuous inhibitors show no inhibition in the presence of Triton X-100. The IC50 values in the presence of Triton X-100 were determined if the RAs were <50%. (RA: ∼50%, IC50∼c, c: concentration of compound in the assay; RA >50%, IC50 > c). The RA was measured over a range of concentrations, from which the IC50 values were determined by non-linear regression analysis, using Sigma Plot (Systat software) and fitting the data to the equation y = y0+(a×b)/(b+x)[23].

[3] = molecular target: PBP5fm (Enterococcus faecium, UniProt Q47759); experiment: PBP5fm enzymatic inhibition assay (fluorescein-labeled ampicillin, residual penicillin binding activity); type: biochemical, Enterococcus faecium D63r; settings: 4 h; residual activity of the enzyme at 1 mM inhibitor; 0.01% Triton X-100; read-out: PBP5fm RA [%]
Method: as §1, §2

[4] = tested on: Bacillus subtilis ATCC 6633; experiment: In-vitro antibacterial activity (MIC, broth microdilution); type: cell-based; settings: ATCC6633
Method: (§3) Determination of the antibacterial activities was carried out on microtiter plates, in 200 µL (final volume) of Müeller-Hinton Broth (MHB), following EUCAST (European Committee on Antimicrobial Susceptibility testing)/CLSI (Clinical and Laboratory Standard Institute) recommended procedures, [25]. The compounds were solubilized in MHB, just before use. Inocula were prepared for each strain by resuspending isolated colonies from 18 h cultured plates. Equivalents of 0.5 Mac Farland turbidity standards (approximately 1×10^8 CFU mL^−1) were prepared in saline solution ([…]) and then diluted 200-fold in MBH.

[5] = tested on: Citrobacter freundii ATCC 8090; experiment: as above; type: cell-based; settings: ATCC8090
Method: as §3

[6] = tested on: Enterococcus faecalis ATCC 29212; experiment: as above; type: cell-based; settings: ATCC29212
Method: as §3

[7] = tested on: Enterococcus faecalis ATCC 7937; experiment: as above; type: cell-based; settings: ATCC7937
Method: as §3

[8] = tested on: Enterococcus faecium ATCC 19434; experiment: as above; type: cell-based; settings: ATCC19434
Method: as §3

[9] = tested on: Enterococcus hirae ATCC 8790; experiment: as above; type: cell-based; settings: ATCC8790
Method: as §3

[10] = tested on: Escherichia coli ATCC 8739; experiment: as above; type: cell-based; settings: ATCC8739
Method: as §3

[11] = tested on: Klebsiella pneumoniae ATCC 13883; experiment: as above; type: cell-based; settings: ATCC13883
Method: as §3

[12] = tested on: Listeria innocua ATCC 33090; experiment: as above; type: cell-based; settings: ATCC33090
Method: as §3

[13] = tested on: Listeria monocytogenes ATCC 14780; experiment: as above; type: cell-based; settings: ATCC14780
Method: as §3

[14] = tested on: Micrococcus luteus ATCC 9341; experiment: as above; type: cell-based; settings: ATCC9341
Method: as §3

[15] = tested on: Proteus mirabilis ATCC 29936; experiment: as above; type: cell-based; settings: ATCC29936
Method: as §3

[16] = tested on: Pseudomonas aeruginosa ATCC 27853; experiment: as above; type: cell-based; settings: ATCC27853
Method: as §3

[17] = tested on: Staphylococcus aureus ATCC 25923; experiment: as above; type: cell-based; settings: ATCC25923
Method: as §3

[18] = tested on: Staphylococcus aureus ATCC 43300 (MRSA); experiment: as above; type: cell-based
Method: as §3

[19] = tested on: Staphylococcus aureus mp 1 (inducible MRSA); experiment: as above; type: cell-based
Method: as §3

[20] = tested on: Staphylococcus epidermidis ATCC 12228; experiment: as above; type: cell-based; settings: ATCC12228
Method: as §3

[21] = tested on: Streptococcus pneumoniae ATCC 33400; experiment: as above; type: cell-based; settings: ATCC33400
Method: as §3

[22] = tested on: Streptococcus pneumoniae ATCC 49619; experiment: as above; type: cell-based; settings: ATCC49619
Method: as §3

[23] = tested on: Streptococcus pneumoniae D39; experiment: as above; type: cell-based
Method: as §3

[24] = residual activity of the enzyme at 1 mM inhibitor

Sequence of PBP5fm (Q47759 entry or part of it): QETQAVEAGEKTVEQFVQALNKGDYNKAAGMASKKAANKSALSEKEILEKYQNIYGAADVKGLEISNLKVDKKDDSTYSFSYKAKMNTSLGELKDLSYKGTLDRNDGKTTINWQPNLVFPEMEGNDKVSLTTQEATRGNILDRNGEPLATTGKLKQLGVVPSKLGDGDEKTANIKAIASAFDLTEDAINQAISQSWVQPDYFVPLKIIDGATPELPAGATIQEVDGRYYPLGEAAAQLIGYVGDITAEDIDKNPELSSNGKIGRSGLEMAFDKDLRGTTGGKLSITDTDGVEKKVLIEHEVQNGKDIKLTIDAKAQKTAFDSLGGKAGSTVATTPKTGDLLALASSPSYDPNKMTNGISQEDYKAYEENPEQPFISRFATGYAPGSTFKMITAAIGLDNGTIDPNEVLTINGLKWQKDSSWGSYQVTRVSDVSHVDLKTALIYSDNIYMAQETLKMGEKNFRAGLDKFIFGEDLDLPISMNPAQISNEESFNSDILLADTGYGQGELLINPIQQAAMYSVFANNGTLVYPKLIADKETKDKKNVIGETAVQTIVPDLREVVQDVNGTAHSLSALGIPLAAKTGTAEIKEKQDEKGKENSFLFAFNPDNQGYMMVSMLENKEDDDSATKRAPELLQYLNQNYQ
T1 sequence (P07944 whole entry): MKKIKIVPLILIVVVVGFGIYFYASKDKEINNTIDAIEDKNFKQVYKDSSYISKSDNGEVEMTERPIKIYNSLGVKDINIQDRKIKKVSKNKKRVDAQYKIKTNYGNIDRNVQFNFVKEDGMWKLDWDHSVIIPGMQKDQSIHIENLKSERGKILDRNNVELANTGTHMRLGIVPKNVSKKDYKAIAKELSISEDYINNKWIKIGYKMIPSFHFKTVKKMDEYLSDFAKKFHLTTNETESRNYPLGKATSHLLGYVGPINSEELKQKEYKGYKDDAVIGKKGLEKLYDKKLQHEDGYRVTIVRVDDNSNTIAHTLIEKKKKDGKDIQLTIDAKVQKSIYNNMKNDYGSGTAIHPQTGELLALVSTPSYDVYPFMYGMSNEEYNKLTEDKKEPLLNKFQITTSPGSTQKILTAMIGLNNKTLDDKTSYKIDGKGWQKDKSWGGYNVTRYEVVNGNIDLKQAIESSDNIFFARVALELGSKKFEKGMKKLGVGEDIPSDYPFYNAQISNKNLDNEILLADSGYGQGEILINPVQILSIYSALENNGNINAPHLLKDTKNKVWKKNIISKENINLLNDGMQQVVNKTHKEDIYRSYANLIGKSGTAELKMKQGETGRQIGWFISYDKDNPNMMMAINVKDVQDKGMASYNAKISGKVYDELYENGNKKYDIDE
Sequence of PBP2x 5204 (P59676 49-750): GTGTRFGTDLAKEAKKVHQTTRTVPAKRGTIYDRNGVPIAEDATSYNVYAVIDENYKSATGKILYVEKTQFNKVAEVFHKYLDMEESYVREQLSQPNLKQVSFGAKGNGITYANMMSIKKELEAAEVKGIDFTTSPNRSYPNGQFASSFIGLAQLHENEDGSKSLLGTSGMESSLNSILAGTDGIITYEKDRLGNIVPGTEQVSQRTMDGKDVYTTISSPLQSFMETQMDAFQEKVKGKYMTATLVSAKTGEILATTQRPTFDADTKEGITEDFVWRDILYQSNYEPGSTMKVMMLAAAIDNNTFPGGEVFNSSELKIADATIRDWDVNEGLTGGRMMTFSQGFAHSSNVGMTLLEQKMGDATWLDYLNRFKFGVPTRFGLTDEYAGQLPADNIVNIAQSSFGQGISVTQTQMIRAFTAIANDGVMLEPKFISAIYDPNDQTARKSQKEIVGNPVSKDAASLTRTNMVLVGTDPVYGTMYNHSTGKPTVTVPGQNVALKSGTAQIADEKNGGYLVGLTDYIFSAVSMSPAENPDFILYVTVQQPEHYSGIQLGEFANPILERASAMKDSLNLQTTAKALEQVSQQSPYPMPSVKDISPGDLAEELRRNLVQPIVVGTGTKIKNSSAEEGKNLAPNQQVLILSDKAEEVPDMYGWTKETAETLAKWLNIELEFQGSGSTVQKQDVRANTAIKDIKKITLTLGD

SMILES: CCCOc1ccc(C(=O)Nc2ccc(Br)cc2C(=O)O)cc1 [compound 6, 5-Bromo-2-(4-propoxybenzamido)benzoic acid]
- remaining activity at 1000 µM [1]: 0%
- IC50 [1]: 210 µM
- PBP2x5204 RA [%] [2, 24]: 41%
- activity at 1000 µM [3]: 68%
- MIC [4]: 128 µg/mL (≈ 338 µM)
- MIC [5]: > 512 µg/mL
- MIC [6]: 32 µg/mL (≈ 84.6 µM)
- MIC [7]: 64 µg/mL (≈ 169 µM)
- MIC [8]: 256 µg/mL (≈ 677 µM)
- MIC [9]: 32 µg/mL (≈ 84.6 µM)
- MIC [10]: > 512 µg/mL
- MIC [11]: > 512 µg/mL
- MIC [12]: 64 µg/mL (≈ 169 µM)
- MIC [13]: 64 µg/mL (≈ 169 µM)
- MIC [14]: 32 µg/mL (≈ 84.6 µM)
- MIC [15]: > 512 µg/mL
- MIC [16]: > 512 µg/mL
- MIC [17]: 16 µg/mL (≈ 42.3 µM)
- MIC [18]: 128 µg/mL (≈ 338 µM)
- MIC [19]: 128 µg/mL (≈ 338 µM)
- MIC [20]: 16 µg/mL (≈ 42.3 µM)
- MIC [21]: 64 µg/mL (≈ 169 µM)
- MIC [22]: 32 µg/mL (≈ 84.6 µM)
- MIC [23]: 16 µg/mL (≈ 42.3 µM)

SMILES: CCCOc1ccc(C(=O)Nc2ccc(O)cc2C(=O)O)cc1 [compound 7, 5-Hydroxy-2-(4-propoxybenzamido)benzoic acid]
- remaining activity at 1000 µM [1]: 74%
- PBP2x5204 RA [%] [2, 24]: 65%
- activity at 1000 µM [3]: 72%

SMILES: CCCOc1ccc(C(=O)Nc2ccccc2C(=O)O)cc1 [compound 8, 2-(4-Propoxybenzamido)benzoic acid]
- remaining activity at 1000 µM [1]: 60%
- PBP2x5204 RA [%] [2, 24]: 103%
- activity at 1000 µM [3]: 74%

SMILES: CCCOc1cccc(C(=O)Nc2ccc(Br)cc2C(=O)O)c1 [compound 9, 5-Bromo-2-(3-propoxybenzamido)benzoic acid]
- remaining activity at 1000 µM [1]: 0%
- IC50 [1]: 230 µM
- IC50 ([2]; read-out: PBP2x5204 IC50, in the presence of 0.01% Triton X-100): 155 µM
- PBP2x5204 RA [%] ([2]; residual activity of the enzyme at 500 µM inhibitor): 8%
- activity at 1000 µM [3]: 72%
- MIC [4]: 32 µg/mL (≈ 84.6 µM)
- MIC [5]: > 512 µg/mL
- MIC [6]: 64 µg/mL (≈ 169 µM)
- MIC [7]: 64 µg/mL (≈ 169 µM)
- MIC [8]: 16 µg/mL (≈ 42.3 µM)
- MIC [9]: 16 µg/mL (≈ 42.3 µM)
- MIC [10]: > 512 µg/mL
- MIC [11]: > 512 µg/mL
- MIC [12]: 16 µg/mL (≈ 42.3 µM)
- MIC [13]: 16 µg/mL (≈ 42.3 µM)
- MIC [14]: 16 µg/mL (≈ 42.3 µM)
- MIC [15]: > 512 µg/mL
- MIC [16]: > 512 µg/mL
- MIC [17]: 32 µg/mL (≈ 84.6 µM)
- MIC [18]: 32 µg/mL (≈ 84.6 µM)
- MIC [19]: 32 µg/mL (≈ 84.6 µM)
- MIC [20]: 8 µg/mL (≈ 21.2 µM)
- MIC [21]: 1 µg/mL (≈ 2.64 µM)
- MIC [22]: 1 µg/mL (≈ 2.64 µM)
- MIC [23]: 1 µg/mL (≈ 2.64 µM)

SMILES: CCCOc1cccc(C(=O)Nc2ccc(C)cc2C(=O)O)c1 [compound 10, 5-Methyl-2-(3-propoxybenzamido)benzoic acid]
- remaining activity at 1000 µM [1]: 17%
- IC50 [1]: 680 µM
- PBP2x5204 RA [%] [2, 24]: 121%
- activity at 1000 µM [3]: 69%
- MIC [4]: 256 µg/mL (≈ 817 µM)
- MIC [5]: > 512 µg/mL
- MIC [6]: 256 µg/mL (≈ 817 µM)
- MIC [7]: 256 µg/mL (≈ 817 µM)
- MIC [8]: 128 µg/mL (≈ 408 µM)
- MIC [9]: 128 µg/mL (≈ 408 µM)
- MIC [10]: > 512 µg/mL
- MIC [11]: > 512 µg/mL
- MIC [12]: 256 µg/mL (≈ 817 µM)
- MIC [13]: 32 µg/mL (≈ 102 µM)
- MIC [14]: 256 µg/mL (≈ 817 µM)
- MIC [15]: > 512 µg/mL
- MIC [16]: > 512 µg/mL
- MIC [17]: 128 µg/mL (≈ 408 µM)
- MIC [18]: 256 µg/mL (≈ 817 µM)
- MIC [19]: 256 µg/mL (≈ 817 µM)
- MIC [20]: 128 µg/mL (≈ 408 µM)
- MIC [21]: 2 µg/mL (≈ 6.38 µM)
- MIC [22]: 2 µg/mL (≈ 6.38 µM)
- MIC [23]: 2 µg/mL (≈ 6.38 µM)

SMILES: CCCOc1cccc(C(=O)Nc2ccc(O)cc2C(=O)O)c1 [compound 11, 5-Hydroxy-2-(3-propoxybenzamido)benzoic acid]
- remaining activity at 1000 µM [1]: 70%
- PBP2x5204 RA [%] [2, 24]: 118%
- activity at 1000 µM [3]: 61%
